According to patent publication US10632111B2 (priority 2014, dated 2020):

Assay: Pharmacokinetic properties in SD rats after intramuscular injection
Settings: male SD rats, i.m., 90 mg/kg (based on donepezil), oil solvent, plasma, LC/MS/MS
From the text: Pharmacokinetic Properties of Compounds of the Present Invention Administered to Rats
In the present embodiment, male SD rats (SPF grade), aged […] and weighing 180 to 220 g, were purchased from Shanghai Slack laboratory Animal Co., Ltd. Throughout the process of the experiment, give the rats free access to food and water.
Adopting grouping of random grouping design, the SD rats for experiments were grouped according to gender and body weight.
The whole blood was collected and placed on ice, followed by centrifugation at 4° C., 8000 rpm and 5 min to collect plasma The plasma was transferred to a 96-well plate and stored at −20° C. until LC-MS/MS examination. Drug concentrations in EDTA (4 mM) anticoagulated plasma of SD rats were determined using LC/MS/MS (Agilent6460). Using WinNonlin 5.2 software, calculate respective relevant pharmacokinetic parameters of each group at each time point after administration according to statistical moment theory.
t1/2 was calculated by the formula t1/2=0.693/λz; λz is an end elimination rate constant derived from the logarithmic concentration—the straight part of the end of time curve, which can be derived from the slope of the logarithmic concentration—the straight part of the end of time curve.

CCCCCCC(=O)OC1=C(CC2CCN(Cc3ccccc3)CC2)Cc2cc(OC)c(OC)cc21 [Compound 3, Donepezil Heptanoate]
Cmax (measured value): 44.11 ng/mL
Tmax (measured value): 18.00 h
T1/2 (t1/2=0.693/λz): 314.18 h
